Results as given in patent publication US20140088052A1, “CHALCONE DERIVATIVES AS NRF2 ACTIVATORS” (THE JOHNS HOPKINS UNIVERSITY, priority 2011, published 2014).

Tests used:
OVA-induced asthma = OVA-induced asthma mouse model; format: in vivo; design: dose or concentration left out as unconfirmed; conditions: mice, every other day during sensitization and challenge, prophylactic mode
Procedure: Mice were sensitized by intraperitoneal injection (day 0, day 14), and challenged intranasally, with OVA (day 21 to day 24). […] 24 h after the last dose of OVA challenge, airway inflammation (FIG. 16A) and airway hyperresponsiveness (AHR) (FIG. 16B) were assessed.

Nrf2 [1] = experiment: Concentration and time-course studies of Nrf2-driven antioxidant genes in Beas-2B cells; format: cell-based, human
Procedure: The expression of Nrf2-regulated genes GCLM, HO1, and NQO1 was analyzed in the tissues by qRT-PCT as a surrogate marker of Nrf2 activity. β-actin was used for normalization. Data are representative of three independent experiments. […] The expression of Nrf2-regulated genes GCLM, HO1, and NQO1 was analyzed in the tissues by aRT-PCR. β-actin was used for normalization. Data are representative of three independent experiments. Values shown are mean±SD of triplicate wells (P≦0.05); […] […] Total RNA was extracted from cells/tissue using Qiagen RNeasy kit (Qiagen Corporation, Valencia, Calif.) and reverse transcription was performed by using random hexamers and MultiScribe reverse transcriptase according to the manufacturer's recommendations (Applied Biosystems, Foster City, Calif., USA). Quantitative real-time RT-PCR analyses of Nrf2, NQO1, HO1, and GCLM were performed by using Assay-on-Demand primers and probe sets from Applied Biosystems. Assays were performed using the ABI 7000 Taqman system (Applied Biosystems, Foster City, Calif.). β-actin was used for normalization.

Nrf2 [2] = experiment: Nrf2-regulated gene expression with or without N-acetyl-cysteine in Beas-2B cells; format: cell-based, human; conditions: 10 μM with NAC 10 mM, 24 h
Procedure: Cells were harvested 24 h after the treatment and the Nrf2-driven expression of NQO1, HO-1, and GCLM was quantified. β-actin was used for normalization. Data are representative of three independent experiments. Values shown are mean±SD of triplicate wells (P≦0.05);
The activation of Nrf2 by various electrophiles and compounds that are Michael acceptors is attributed to changes in ROS production and or redox environment and or direct cysteine modification in Keap1. Nguyen, T., et al., The Nrf2-antioxidant response element signaling pathway and its activation by oxidative stress. J. Biol. Chem. 2009, 284, 13291-13295; McMahon, M., et al., Keap1 perceives stress via three sensors for the endogenous signaling molecules nitric oxide, zinc, and alkenals. Proc. Natl. Acad. Sci. U.S.A. 2010, 107, 18838-18843. Whether 2b activates Nrf2 by generating ROS or redox changes also was examined.

hematopoietic stem cells = experiment: Bone marrow mononuclear cells and hematopoietic stem cells in irradiated mice; format: in vivo; conditions: 6.9Gy, single dose 24 h after irradiation, compared to vehicle
Nrf2 [3] = experiment: Pharmacodynamic markers of Nrf2 activity (NQO1, HO-1, GCLM) in irradiated mice; format: in vivo; conditions: irradiated (6.9Gy) mice, day 12, compared to vehicle
Procedure: NQO1, HO-1 and GCLM levels were analyzed in bone marrow (FIG. 12A), lung (FIG. 12B) and small intestine (FIG. 12C) harvested at day 12 from irradiated (6.9Gy) mice treated with vehicle or drug.

[4] = system: chemotherapy-induced neutropenia; experiment: Cyclophosphamide-induced reversible neutropenia in mice; format: in vivo; conditions: cyclophosphamide i.p. day 0 and day 5, treatment every 48 h, compared to vehicle
Procedure: At indicated time periods, a cohort of mice was sacrificed. Peripheral blood was collected and differential blood cell count was analyzed using a Hemavet 950S.

Nrf2 [5] = experiment: In vivo potency to activate Nrf2: GCLM and NQO1 expression in mouse small intestine; design: species or system mice (C57BL/6); conditions: mice, single dose 50 mg/kg by gavage, 24 h
Procedure: Mice (n=4) were fed with vehicle (DCP-10% DMSO+10% Cremophor+80% phosphate buffered saline) or chalcone derivatives or sulforaphane (50 mg/kg body weight) by gavage, and the small intestines were harvested 24 hours later. The expression of Nrf2-regulated genes GCLM and NQO1 was analyzed in the tissues by qRT-PCR as a surrogate marker of Nrf2 activity. β-actin was used for normalization. Data are representative of three independent experiments. Values shown are mean±SD of triplicate wells (P≦0.05);
The potency of the 8 lead chalcones identified in the in vitro screening to activate Nrf2 pathway were evaluated in mouse models. First, various formulations to dissolve the compounds were evaluated, and the DCP (10% DMSO+10% Cremophor EL+80% phosphate buffered saline) formulation offered the maximum solubility for delivery of these compounds by oral route. Mice (C57BL/6) were administrated with a single dose of vehicle or test compound(s) or sulforaphane as the positive control at a dose of 50 mg/kg body weight by gavage and small intestines were harvested 24 h later. The expression of Nrf2-regulated genes GCLM and NQO1 was analyzed in the tissue by qRT-PCR. All the eight compounds tested increased the expression of GCLM and NQO1 in small intestine. […] The expression of GCLM and NQO1 in the small intestine of mice treated with 2b was 6-fold and 10-fold higher compared to vehicle, respectively. Similarly, the expression of GCLM and NQO1 in the small intestine treated with 2b was 3-fold and 5-fold higher compared to sulforaphane, respectively.
All experiments in mice were performed in accordance with the standards established by the U.S. Animal Welfare Acts, set forth in NIH guidelines and the Policy and Procedures Manual of the Johns Hopkins University Animal Care and Use Committee. C57BL/6 mice (male, 7 weeks) were maintained on AIN 76A diet (Harlan Tekland, Madison, Wis.) and water ad libitum and housed at a temperature (range, 20-23° C.) under 12 h light/dark cycles. The mice were treated with chalcone analogs (50 mg/kg body weight) or vehicle or sulforaphane as a positive control by gavage. After 24 h treatment, the small intestines were harvested and stored at −80° C. until analysis.
Total RNA was extracted from cells/tissue using Qiagen RNeasy kit (Qiagen Corporation, Valencia, Calif.) and reverse transcription was performed by using random hexamers and MultiScribe reverse transcriptase according to the manufacturer's recommendations (Applied Biosystems, Foster City, Calif., USA). Quantitative real-time RT-PCR analyses of Nrf2, NQO1, HO1, and GCLM were performed by using Assay-on-Demand primers and probe sets from Applied Biosystems. Assays were performed using the ABI 7000 Taqman system (Applied Biosystems, Foster City, Calif.). β-actin was used for normalization.

[6] = Beas-2B cells, 10 μM, 6 h after treatment

Compound: COc1ccccc1C(=O)/C=C/c1ccccc1C(F)(F)F [Compound 2b, (E)-1-(2-methoxyphenyl)-3-(2-(trifluoromethyl)phenyl)prop-2-en-1-one]
- allergen-induced asthma (airway inflammation and airway hyper-responsiveness) (OVA-induced asthma): protected the mice from allergen-induced asthma
- expression of HO-1 compared to sulforaphane (Nrf2 [1]; Beas-2B cells, 10 μM): 6 fold
- expression of NQO1 over time (Nrf2 [1]; Beas-2B cells, 10 μM, 6, 12, 24 and 48 h): highest at 24 h and remained significantly elevated even at 48 h
- highest induction of GCLM (Nrf2 [1]; [6]): approximately 7 fold
- highest induction of HO-1 (Nrf2 [1]; [6]): approximately 150 fold
- expression of GCLM and HO-1 at 48 h (Nrf2 [1]; Beas-2B cells, 10 μM, 48 h): comparable to vehicle by 48 h
- increase in the expression of GCLM (Nrf2 [1]; Beas-2B cells, 20 μM, 24 h): approximately 5 fold
- increase in the expression of NQO1 (Nrf2 [1]; Beas-2B cells, 20 μM, 24 h): ~10 fold
- Nrf2-regulated gene expression (GCLM, NQO1, HO1) (Nrf2 [1]; Beas-2B cells, 2.5, 5, 10, 20 μM, 24 h): significantly increased the Nrf2-regulated gene expression in a concentration-dependent manner
- expression of GCLM, NQO1 and HO1 in the presence of NAC (Nrf2 [2]): potentially increase the expression of Nr2-regulated antioxidant genes in the presence of NAC
- total BM-MNC per limb and total HSPC, HSC and MPP (hematopoietic stem cells; analysed 24 h after treatment): significantly higher
- viable hematopoietic stem cells (colony forming cells assay) (hematopoietic stem cells): increased number of hematopoietic stem cells
- Nrf2 regulated antioxidants (NQO1, HO-1, GCLM) in BM-MNC, gut and lung (Nrf2 [3]): significantly elevated
- duration of neutropenia [4]: significantly reduced the duration of neutropenia
- expression of GCLM in the small intestine, compared to sulforaphane (Nrf2 [5]): 3 fold
- expression of GCLM in the small intestine, compared to vehicle (Nrf2 [5]): 6 fold
- expression of NQO1 in the small intestine, compared to sulforaphane (Nrf2 [5]): 5 fold
- expression of NQO1 in the small intestine, compared to vehicle (Nrf2 [5]): 10 fold
- expression of GCLM and NQO1 in small intestine (Nrf2 activity) (Nrf2 [5]; in words): most potent inducer of Nrf2 activity
